Measured values taken from patent US20230201025A1, “PROCESS FOR FABRICATING A DENTAL APPLIANCE AND ACCOMPANYING USE CASES” (Bottmedical AG, priority 2020, published 2023).

Assays:
Streptococcus mutans = assay: calorimetric measurement of suppression of bacterial growth (S. mutans); type: cell-based; conditions: single essential oil component at 0.1% in BHI
Procedure: (§1) Finally, additional calorimetric experiments were performed to measure the capability of different agents of suppressing the growth of bacteria such as Streptococcus mutans and Streptococcus mitis. The different agents 7 were applied as a solution containing a single essential oil component at a concentration of 0.1% in BHI. As figure of merits, the lag phase, defined as the postponement in time of the growth of the bacteria and measured in hours, and the growth rate (increase in number of bacteria/time), measured in J/h, of the Streptococcus populations were determined as follows: […]

Streptococcus mitis = assay: calorimetric measurement of suppression of bacterial growth (S. mitis); type: cell-based; conditions: single essential oil component at 0.1% in BHI
Procedure: as §1

SMILES	growth rate (J/h) of S. mutans (Streptococcus mutans) [J/h]	lag phase (h) of S. mutans growth (Streptococcus mutans) [h]	growth rate (J/h) of S. mitis (Streptococcus mitis) [J/h]	lag phase (h) of S. mitis growth (Streptococcus mitis) [h]	growth rate (J/h) of S. mutans (Streptococcus mutans; listed as cinnamaldehyde)
CC12CCC(CC1)C(C)(C)O2 [Eucalyptol]	1.3	5	0.14	2	–
C=C(C)[C@H]1CC=C(C)CC1 [Limonene]	–	–	0.11	3	–
O=CC=Cc1ccccc1 [cinnam aldehyde, cinnamaldehyde]	0	>24	0.15	6.2	without any measurable growth
COC(=O)c1ccccc1O [methyl salicylate]	1.2	5	0.4	23	–
C/C=C/c1ccc(OC)cc1 [trans-anethole]	0.03	>24	0.13	6.4	–
